In one series the target is human 5-HT2A receptor (Homo sapiens, UniProt P28223). Put plainly: Human 5-HT2A radioligand binding assay ([3H]-ketanserin). As to the method:
The objective of this study was to evaluate the binding properties of exemplary compounds of Formula I on 5-hydroxytryptamine receptor 2A (5-HT2A).
• 1. The assay buffer was prepared following the table below.
• 2. 8 doses of reference and test compounds starting from 10 mM stock solution as required was prepared by 5-fold serial dilutions with 100% (v/v) DMSO. • 3. UniFilter-96 GF/B plate was pretreated: • i. 50 μl/well of 0.5% (v/v) PEI was added to […]. The plates were sealed and incubated at […] for 3 hrs. • ii. After incubation, the plates were washed 3 times with ice-cold wash buffer (50 mM Tris, pH7.4). • 4. The assay plate was prepared: • i. Cell membrane was diluted with assay buffer and 330 μl/well was added to 96 round deep well plates to reach a concentration of 20 μg/well. • ii. 8 concentrations of reference or test compounds were prepared and 110 μl/well was added to 96 round deep well plates. • iii. [3H]-ketanserin was diluted with assay buffer to 5 nM (5×final concentration) and 110 μl/well was added to 96 round deep well plates. • 5. The plate was centrifuged at 1000 rpm for 30 secs and then agitated at 600 rpm, R.T. for 5 min. • 6. The plates were sealed and the plate incubated at 279C for 90 min. • 7. The incubation was stopped by vacuum filtration onto GF/B filter plates followed by 4 times washing with ice-cold wash buffer (50 mM Tris, pH7.4). • 8. The plates were dried at 379C for 45 min. • 8. The filter plates were sealed and 40 μl/well of scintillation cocktail was added. • 10. The plate was read by using a Microbeta^2 microplate counter.
• 1. For reference and test compounds, the results were expressed as % Inhibition, using the normalization equation: N=100−100×(U−C2)/(C1−C2), where U is the unknown value, C1 is the average of high controls, and C2 is the average of low controls. • 2. The IC50 was determined by fitting percentage of inhibition as a function of compound concentrations with Hill equation using XLfit.

Another series can be described thus: Plasma stability, human. The class given is in vitro ADME. As to the method: (§1) • a. […] The final concentration of organic solvents was 0.5%. The assay was performed in duplicated. • b.
(§2) All calculations were carried out using Microsoft Excel.

Series [1] can be described thus: Liver microsomes stability, mouse. As to conditions: for half-life at 2 μM / microsomal CLint at 2 μM: male, mouse; for half-life at 2 μM / microsomal CLint at 2 μM / Remaining Percentage (%) after 60 min, Mouse, With cofactors / Remaining Percentage (%) after 60 min, Mouse, Without cofactors: mouse liver microsomes. As to the method:
40 μL of 10 mM NADPH solution was added to each well. The final concentration of NADPH was 1 mM. The negative control samples were prepared by replacing NADPH with 40 μL of ultra-pure H2O. Samples were prepared in duplicate. Negative controls were prepared in singlet.
This study was performed in duplicate.
LC/MS analysis was performed for all samples from this study using a Shimadzu liquid chromatograph separation system equipped with degasser DGU-20A5R; solvent delivery unit LC-30AD; system controller SIL-30AC; column oven CTO-30A; CTC Analytics HTC PAL System. Mass spectrometric analysis was performed using a Triple Quad™ 5500 instrument.
as §2
All calculations were carried out using Microsoft Excel. Peak areas were determined from extracted ion chromatograms.

A further series is described as follows: Plasma stability, mouse. The class given is in vitro ADME. As to the method: as §1, §2
A short description of another series: Plasma stability, dog. Type of series: in vitro ADME. As to conditions: for half-life: 37° C. As to the method:
as §1, §2

A short description of the next series: Plasma stability, rat. Type of series: in vitro ADME. As to the method: as §1, §2

Chain of human 5-HT2A receptor (P28223 whole entry): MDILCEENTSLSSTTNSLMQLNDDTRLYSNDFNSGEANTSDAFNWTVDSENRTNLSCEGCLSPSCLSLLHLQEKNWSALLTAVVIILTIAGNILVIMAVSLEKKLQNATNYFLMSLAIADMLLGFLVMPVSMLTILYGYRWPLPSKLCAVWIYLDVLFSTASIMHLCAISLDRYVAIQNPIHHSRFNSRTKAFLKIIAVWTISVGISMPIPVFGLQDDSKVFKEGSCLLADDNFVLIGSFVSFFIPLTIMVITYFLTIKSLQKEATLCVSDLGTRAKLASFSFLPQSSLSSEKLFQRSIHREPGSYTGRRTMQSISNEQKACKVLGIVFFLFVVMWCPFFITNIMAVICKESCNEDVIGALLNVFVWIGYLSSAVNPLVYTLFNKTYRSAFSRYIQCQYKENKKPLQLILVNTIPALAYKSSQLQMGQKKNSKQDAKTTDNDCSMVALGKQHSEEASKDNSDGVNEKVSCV

Consider `[2H]C([2H])(c1c[nH]c2cccc(OC(=O)CCCC(=O)Oc3cccc4[nH]cc(C([2H])([2H])[C@H]5CCCN5C([2H])([2H])[2H])c34)c12)[C@H]1CCCN1C([2H])([2H])[2H]` [Compound I-22, bis(3-(((R)-1-(methyl-d3)pyrrolidin-2-yl)methyl-d2)-1H-indol-4-yl) glutarate], for which the IC50 – broadly, the concentration at which inhibition is half-maximal – at human 5-HT2A receptor was 44.8 nM. Also, in the series “Plasma stability, human”, the “Remaining Percentage (%) 0 min” value stood at 100.00%, the “Remaining Percentage (%) 30 min” value is 0.00%, the “Remaining Percentage (%) 60 min” value is given as 0.00% and the “Remaining Percentage (%) 120 min” value turned out to be 0.00%. For the same molecule, in the series “Plasma stability, human”, the “Remaining Percentage (%) 180 min” value is 0.00% and the “Remaining Percentage (%) 240 min” value was determined as 0.00%. In series [1], the half-life (in general, the time needed for the level to fall by half in the phase considered) at 2 μM was below 4.51 min; the microsomal CLint (in general, the capacity of the preparation to metabolise the compound, expressed as a volume cleared per time) at 2 μM is above 307 µL/min/mg; the “Remaining Percentage (%) after 60 min, Mouse, With cofactors” value (shortened to “Remaining Percentage (%) … With cofactors”) is given as 0%; the “Remaining Percentage (%) after 60 min, Mouse, Without cofactors” value worked out at 0%. Moreover, in the series “Plasma stability, mouse”, the “Remaining Percentage (%) 0 min” value was determined as 100.00%, the “Remaining Percentage (%) 30 min” value is listed as 0.00%, the “Remaining Percentage (%) 60 min” value turned out to be 0.00% and the “Remaining Percentage (%) 120 min” value is 0.00%. For the same molecule, in “Plasma stability, mouse”, the “Remaining Percentage (%) 180 min” value came out at 0.00% and the “Remaining Percentage (%) 240 min” value is 0.00%. In addition, in “Plasma stability, dog”, the “Remaining Percentage (%) 0 min” value is recorded as 100.00%, the half-life came to 24.9 min, the “Remaining Percentage (%) 30 min” value was determined as 39.05% and the “Remaining Percentage (%) 60 min” value is given as 14.86%. For the same molecule, in “Plasma stability, dog”, the “Remaining Percentage (%) 120 min” value was 3.51%, the “Remaining Percentage (%) 180 min” value stood at 0.92% and the “Remaining Percentage (%) 240 min” value stood at 0.56%. In addition, in the series “Plasma stability, rat”, the “Remaining Percentage (%) 0 min” value is 100.00%, the “Remaining Percentage (%) 30 min” value worked out at 0.00%, the “Remaining Percentage (%) 60 min” value is listed as 0.00% and the “Remaining Percentage (%) 120 min” value came out at 0.00%. Moreover, in the series “Plasma stability, rat”, the “Remaining Percentage (%) 180 min” value is 0.00% and the “Remaining Percentage (%) 240 min” value amounted to 0.00%.

As for `[2H]C([2H])(c1c[nH]c2cccc(O)c12)[C@H]1CCCN1C([2H])([2H])[2H]` [Compound 13, (R)-3-((1-(methyl-d3)pyrrolidin-2-yl)methyl-d2)-1H-indol-4-ol], the IC50 at human 5-HT2A receptor worked out at 219 nM.

`CN1CCC[C@@H]1Cc1c[nH]c2cccc(O)c12` [Compound 10, (R)-3-((1-methylpyrrolidin-2-yl)methyl)-1H-indol-4-ol] had a 50% inhibitory concentration (IC50) at human 5-HT2A receptor of 219 nM. That is a sub-micromolar value.

Take `CN1CCC[C@@H]1Cc1c[nH]c2cccc(OC(=O)CCCC(=O)Oc3cccc4[nH]cc(C[C@H]5CCCN5C)c34)c12` [Compound I-13, Bis(3-(((R)-1-methylpyrrolidin-2-yl)methyl)-1H-indol-4-yl) glutarate]: the IC50 at human 5-HT2A receptor came out at 37 nM. In addition, in “Plasma stability, human”, the “Remaining Percentage (%) 0 min” value is on record as 100.00%, the “Remaining Percentage (%) 30 min” value is reported as 0.00%, the “Remaining Percentage (%) 60 min” value turned out to be 0.00% and the “Remaining Percentage (%) 120 min” value was found to be 0.00%. Besides, in “Plasma stability, human”, the “Remaining Percentage (%) 180 min” value was determined as 0.00% and the “Remaining Percentage (%) 240 min” value turned out to be 0.00%. Further, in series [1], the half-life at 2 μM was below 4.51 min; the intrinsic clearance (microsomal CLint) at 2 μM is above 307 µL/min/mg; the “Remaining Percentage (%) … With cofactors” value turned out to be 0%; the “Remaining Percentage (%) after 60 min, Mouse, Without cofactors” value was 0%. Also, in “Plasma stability, mouse”, the “Remaining Percentage (%) 0 min” value is 100.00%, the “Remaining Percentage (%) 30 min” value is listed as 0.00%, the “Remaining Percentage (%) 60 min” value worked out at 0.00% and the “Remaining Percentage (%) 120 min” value stood at 0.00%. In addition, in the series “Plasma stability, mouse”, the “Remaining Percentage (%) 180 min” value is listed as 0.00% and the “Remaining Percentage (%) 240 min” value was 0.00%. In addition, in “Plasma stability, dog”, the “Remaining Percentage (%) 0 min” value worked out at 100.00%, the half-life was 49.2 min, the “Remaining Percentage (%) 30 min” value amounted to 67.21% and the “Remaining Percentage (%) 60 min” value amounted to 44.90%. Besides, in the series “Plasma stability, dog”, the “Remaining Percentage (%) 120 min” value turned out to be 15.17%, the “Remaining Percentage (%) 180 min” value is given as 8.32% and the “Remaining Percentage (%) 240 min” value is on record as 3.48%. In the series “Plasma stability, rat”, the “Remaining Percentage (%) 0 min” value amounted to 100.00%, the “Remaining Percentage (%) 30 min” value was 0.00%, the “Remaining Percentage (%) 60 min” value is reported as 0.00% and the “Remaining Percentage (%) 120 min” value was determined as 0.00%. Further, in “Plasma stability, rat”, the “Remaining Percentage (%) 180 min” value was 0.00% and the “Remaining Percentage (%) 240 min” value amounted to 0.00%.

`CN(C)CCc1c[nH]c2cccc(O)c12` [Psilocin, 4-hydroxy-N,N-dimethyltryptamine, reference compound]: the “t1/2 Mouse” value in series [1] (mouse liver microsomes with NADPH, 2 μM) came to 141.71 min. In addition, in series [1], the “Remaining Percentage (%) … With cofactors” value came out at 96.89%.
